Laboratory results: patent publication US9822130B2, “Triazolo-pyrazinyl derivatives useful as soluble guanylate cyclase activators” (Merck Sharp & Dohme Corp., priority 2014, dated 2017)

These compounds were tested against T1, sGC α1/β1 heterodimer stably expressed in CHO-K1 cell line (CHO-K1/sGC) (Homo sapiens, UniProt Q02108+Q02153) (assay: Cell-based sGC Functional Assay (CASA Assay), cGMP generation). Settings: CHO-K1/sGC cells, 1 hr at 37° C., cGMP by HTRF, 4P fit; presence or absence of 1 μM DETA-NO not given; read-out: IP (nM) (inflection point).
T1 construct: expressed in transfected cells
T1 sequence (Q02108 1-690): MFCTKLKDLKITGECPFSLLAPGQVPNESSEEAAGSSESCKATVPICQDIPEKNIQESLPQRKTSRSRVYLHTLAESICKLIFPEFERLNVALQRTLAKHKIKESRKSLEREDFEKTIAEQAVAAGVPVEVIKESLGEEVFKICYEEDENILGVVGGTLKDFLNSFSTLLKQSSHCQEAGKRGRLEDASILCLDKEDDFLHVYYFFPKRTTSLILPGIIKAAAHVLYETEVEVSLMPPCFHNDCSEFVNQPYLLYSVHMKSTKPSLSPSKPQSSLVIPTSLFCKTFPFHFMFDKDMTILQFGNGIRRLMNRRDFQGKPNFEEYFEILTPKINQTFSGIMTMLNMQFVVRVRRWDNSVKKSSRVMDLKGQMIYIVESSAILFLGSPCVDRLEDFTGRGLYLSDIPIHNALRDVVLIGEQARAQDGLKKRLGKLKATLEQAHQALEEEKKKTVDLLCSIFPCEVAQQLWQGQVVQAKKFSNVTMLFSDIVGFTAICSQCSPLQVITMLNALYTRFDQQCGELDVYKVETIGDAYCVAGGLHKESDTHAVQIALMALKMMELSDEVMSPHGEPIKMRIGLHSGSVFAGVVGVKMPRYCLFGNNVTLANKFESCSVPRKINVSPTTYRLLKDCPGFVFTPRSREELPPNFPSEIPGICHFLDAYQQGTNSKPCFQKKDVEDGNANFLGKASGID
T1 sequence (Q02153 1-619): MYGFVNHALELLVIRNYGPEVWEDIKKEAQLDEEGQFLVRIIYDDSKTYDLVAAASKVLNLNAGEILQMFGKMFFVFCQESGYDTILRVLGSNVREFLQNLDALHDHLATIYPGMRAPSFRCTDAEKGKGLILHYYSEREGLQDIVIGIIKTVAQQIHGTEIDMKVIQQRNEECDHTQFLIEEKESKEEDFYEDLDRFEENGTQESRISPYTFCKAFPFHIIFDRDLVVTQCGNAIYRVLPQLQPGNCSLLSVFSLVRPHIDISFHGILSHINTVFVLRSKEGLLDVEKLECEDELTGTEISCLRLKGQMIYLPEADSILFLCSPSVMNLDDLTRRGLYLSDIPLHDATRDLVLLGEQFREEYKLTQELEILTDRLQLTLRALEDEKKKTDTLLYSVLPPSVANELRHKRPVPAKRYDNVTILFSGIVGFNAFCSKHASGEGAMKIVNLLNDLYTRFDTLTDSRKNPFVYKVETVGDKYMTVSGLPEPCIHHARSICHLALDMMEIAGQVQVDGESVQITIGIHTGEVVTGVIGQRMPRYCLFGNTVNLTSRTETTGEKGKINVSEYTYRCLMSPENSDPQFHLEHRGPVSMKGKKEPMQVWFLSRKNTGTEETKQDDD
Outline: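 CHO-K1 cells stably expressing human sGC α1/β1 (4×10^5/mL, 0.5 mM IBMX) were treated with compounds (2.5% DMSO final) ± 1 μM DETA-NO for 1 hr at 37° C. Intracellular cGMP measured by HTRF. Activity expressed as % of Compound A maximal cGMP; IP and maximum fold induction from 4P fit.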

EC50 | SMILES
204 nM | O=C1Nc2nc(-c3cn4ncnc4c(CCC(F)(F)C(F)(F)F)n3)nc(O)c2C1(c1ccc(F)c(F)c1)C1CC1 (centres unmarked) [Example 123A, 5-cyclopropyl-5-(3,4-difluorophenyl)-4-hydroxy-2-(8-(3,3,4,4,4-pentafluorobutyl)-[1,2,4]triazolo[1,5-a]pyrazin-6-yl)-5H-pyrrolo[2,3-d]pyrimidin-6(7H)-one]
1050 nM | O=C1Nc2nc(-c3cn4ncnc4c(CCC(F)(F)C(F)(F)F)n3)nc(O)c2C1(c1cncc(F)c1)C1CC1 (centres unmarked) [Example 124B, 5-cyclopropyl-5-(5-fluoropyridin-3-yl)-4-hydroxy-2-(8-(3,3,4,4,4-pentafluorobutyl)-[1,2,4]triazolo[1,5-a]pyrazin-6-yl)-5H-pyrrolo[2,3-d]pyrimidin-6(7H)-one]
575 nM | CC1(c2cncc(F)c2)C(=O)Nc2nc(-c3cn4ncnc4c(CCC(F)(F)C(F)(F)F)n3)nc(O)c21 (centres unmarked) [Example 125A, 5-(5-fluoropyridin-3-yl)-4-hydroxy-5-methyl-2-(8-(3,3,4,4,4-pentafluorobutyl)-[1,2,4]triazolo[1,5-a]pyrazin-6-yl)-5H-pyrrolo[2,3-d]pyrimidin-6(7H)-one]
132 nM | CC1(c2ccc(Cl)cc2)C(=O)Nc2nc(-c3cn4ncnc4c(CCC(F)(F)C(F)(F)F)n3)nc(O)c21 (centres unmarked) [Example 126A, 5-(4-chlorophenyl)-4-hydroxy-5-methyl-2-(8-(3,3,4,4,4-pentafluorobutyl)-[1,2,4]triazolo[1,5-a]pyrazin-6-yl)-5H-pyrrolo[2,3-d]pyrimidin-6(7H)-one]
1260 nM | CC1(c2ccccn2)C(=O)Nc2nc(-c3cn4ncnc4c(CCC(F)(F)C(F)(F)F)n3)nc(O)c21 (centres unmarked) [Example 127B, 4-hydroxy-5-methyl-2-(8-(3,3,4,4,4-pentafluorobutyl)-[1,2,4]triazolo[1,5-a]pyrazin-6-yl)-5-(pyridin-2-yl)-5H-pyrrolo[2,3-d]pyrimidin-6(7H)-one]
128 nM | CC1(c2ccccc2)C(=O)Nc2nc(-c3cn4ncnc4c(CCC(F)(F)C(F)(F)F)n3)nc(O)c21 (centres unmarked) [Example 128B, 4-hydroxy-5-methyl-2-(8-(3,3,4,4,4-pentafluorobutyl)-[1,2,4]triazolo[1,5-a]pyrazin-6-yl)-5-phenyl-5H-pyrrolo[2,3-d]pyrimidin-6(7H)-one]
51.7 nM | CC1(c2cccc(F)c2)C(=O)Nc2nc(-c3cn4ncnc4c(CCC(F)(F)C(F)(F)F)n3)nc(O)c21 (centres unmarked) [Example 129B, 5-(3-fluorophenyl)-4-hydroxy-5-methyl-2-(8-(3,3,4,4,4-pentafluorobutyl)-[1,2,4]triazolo[1,5-a]pyrazin-6-yl)-5,7-dihydro-6H-pyrrolo[2,3-d]pyrimidin-6-one]
503 nM | Cc1ccc(C2(C)C(=O)Nc3nc(-c4cn5ncnc5c(CCC(F)(F)C(F)(F)F)n4)nc(O)c32)nc1 (centres unmarked) [Example 130B, 4-hydroxy-5-methyl-5-(5-methylpyridin-2-yl)-2-(8-(3,3,3,4,4,4-pentafluorobutyl)-[1,2,4]triazolo[1,5-a]pyrazin-6-yl)-5H-pyrrolo[2,3-d]pyrimidin-6(7H)-one]
1470 nM | CC1(c2ccc(C#N)cn2)C(=O)Nc2nc(-c3cn4ncnc4c(CCC(F)(F)C(F)(F)F)n3)nc(O)c21 (centres unmarked) [Example 131A, 6-(4-hydroxy-5-methyl-6-oxo-2-(8-(3,3,4,4,4-pentafluorobutyl)-[1,2,4]triazolo[1,5-a]pyrazin-6-yl)-6,7-dihydro-5H-pyrrolo[2,3-d]pyrimidin-5-yl)nicotinonitrile]
442 nM | Cc1nc2c(CCC(F)(F)C(F)(F)F)nc(-c3nc(O)c4c(n3)NC(=O)C4(C)c3ccc(Cl)c(F)c3)cn2n1 (centres unmarked) [Example 132B, 5-(4-chloro-3-fluorophenyl)-4-hydroxy-5-methyl-2-(2-methyl-8-(3,3,4,4,4-pentafluorobutyl)-[1,2,4]triazolo[1,5-a]pyrazin-6-yl)-5H-pyrrolo[2,3-d]pyrimidin-6(7H)-one]
856 nM | Cc1nc2c(CCC(F)(F)C(F)(F)F)nc(-c3nc(O)c4c(n3)NC(=O)[C@@]4(C)c3ccc(F)cc3)cn2n1 [Example 133B, (S)-5-(4-fluorophenyl)-4-hydroxy-5-methyl-2-(2-methyl-8-(3,3,4,4,4-pentafluorobutyl)-[1,2,4]triazolo[1,5-a]pyrazin-6-yl)-5H-pyrrolo[2,3-d]pyrimidin-6(7H)-one]
857 nM | CC1(c2ccc(Cl)cn2)C(=O)Nc2nc(-c3cn4ncnc4c(CCCC(F)(F)F)n3)nc(O)c21 (centres unmarked) [Example 134A, 5-(5-chloropyridin-2-yl)-4-hydroxy-5-methyl-2-(8-(4,4,4-trifluorobutyl)-[1,2,4]triazolo[1,5-a]pyrazin-6-yl)-5H-pyrrolo[2,3-d]pyrimidin-6(7H)-one]
183 nM | C[C@@]1(c2ccc(F)cc2)C(=O)Nc2nc(-c3cn4ncnc4c(CCCC(F)(F)F)n3)nc(O)c21 [Example 135A]
514 nM | CC1(c2ccc(F)cn2)C(=O)Nc2nc(-c3cn4ncnc4c(CCCC(F)(F)F)n3)nc(O)c21 (centres unmarked) [Example 136B, 5-(5-fluoropyridin-2-yl)-4-hydroxy-5-methyl-2-(8-(4,4,4-trifluorobutyl)-[1,2,4]triazolo[1,5-a]pyrazin-6-yl)-5H-pyrrolo[2,3-d]pyrimidin-6(7H)-one]
597 nM | CC1(c2ccc(C(F)(F)F)cc2)C(=O)Nc2nc(-c3cn4ncnc4c(CCCC(F)(F)F)n3)nc(O)c21 (centres unmarked) [Example 137B, 4-hydroxy-5-methyl-2-(8-(4,4,4-trifluorobutyl)-[1,2,4]triazolo[1,5-a]pyrazin-6-yl)-5-(4-(trifluoromethyl)phenyl)-5H-pyrrolo[2,3-d]pyrimidin-6(7H)-one]
344 nM | CC1(c2ccc(Cl)c(F)c2)C(=O)Nc2nc(-c3cn4ncnc4c(CCCC(F)(F)F)n3)nc(O)c21 (centres unmarked) [Example 138B, 5-(4-chloro-3-fluorophenyl)-4-hydroxy-5-methyl-2-(8-(4,4,4-trifluorobutyl)-[1,2,4]triazolo[1,5-a]pyrazin-6-yl)-5H-pyrrolo[2,3-d]pyrimidin-6(7H)-one]
673 nM | O=C1Nc2nc(-c3cn4ncnc4c(CCCC(F)(F)F)n3)nc(O)c2C1(c1ccc(F)cc1)C1CC1 (centres unmarked) [Example 139B, 5-cyclopropyl-5-(4-fluorophenyl)-4-hydroxy-2-(8-(4,4,4-trifluorobutyl)-[1,2,4]triazolo[1,5-a]pyrazin-6-yl)-5H-pyrrolo[2,3-d]pyrimidin-6(7H)-one]
277 nM | O=C1Nc2nc(-c3cn4ncnc4c(CCCC(F)(F)F)n3)nc(O)c2C1(c1ccc(Cl)cc1)C1CC1 (centres unmarked) [Example 140B, 5-(4-chlorophenyl)-5-cyclopropyl-4-hydroxy-2-(8-(4,4,4-trifluorobutyl)-[1,2,4]triazolo[1,5-a]pyrazin-6-yl)-5H-pyrrolo[2,3-d]pyrimidin-6(7H)-one]
183 nM | O=C1Nc2nc(-c3cn4ncnc4c(CCCC(F)(F)F)n3)nc(O)c2C1(c1ccc(F)c(F)c1)C1CC1 (centres unmarked) [Example 141A, 5-cyclopropyl-5-(3,4-difluorophenyl)-4-hydroxy-2-(8-(4,4,4-trifluorobutyl)-[1,2,4]triazolo[1,5-a]pyrazin-6-yl)-5H-pyrrolo[2,3-d]pyrimidin-6(7H)-one]
207 nM | CC1(c2ccc(Cl)cc2)C(=O)Nc2nc(-c3cn4ncnc4c(CCCC(F)(F)F)n3)nc(O)c21 (centres unmarked) [Example 142A, 5-(4-chlorophenyl)-4-hydroxy-5-methyl-2-(8-(4,4,4-trifluorobutyl)-[1,2,4]triazolo[1,5-a]pyrazin-6-yl)-5H-pyrrolo[2,3-d]pyrimidin-6(7H)-one]
